# PMC7504721, “Targeting the Initiator Protease of the Classical Pathway of Complement Using Fragment-Based Drug Discovery” (Molecules, 2020)
# Legend:
# C1r proenzyme = target: T1, C1r proenzyme (Homo sapiens, UniProt P00736); experiment: C1r proenzyme activation (autoactivation) assay with Z-Gly-Arg-sBzl substrate; assay type: biochemical; conditions: 10 mM compound, 37 °C, 1 h
# T1 construct: purchased Complement Technology (CompTech)
# T1 sequence (P00736 18-705): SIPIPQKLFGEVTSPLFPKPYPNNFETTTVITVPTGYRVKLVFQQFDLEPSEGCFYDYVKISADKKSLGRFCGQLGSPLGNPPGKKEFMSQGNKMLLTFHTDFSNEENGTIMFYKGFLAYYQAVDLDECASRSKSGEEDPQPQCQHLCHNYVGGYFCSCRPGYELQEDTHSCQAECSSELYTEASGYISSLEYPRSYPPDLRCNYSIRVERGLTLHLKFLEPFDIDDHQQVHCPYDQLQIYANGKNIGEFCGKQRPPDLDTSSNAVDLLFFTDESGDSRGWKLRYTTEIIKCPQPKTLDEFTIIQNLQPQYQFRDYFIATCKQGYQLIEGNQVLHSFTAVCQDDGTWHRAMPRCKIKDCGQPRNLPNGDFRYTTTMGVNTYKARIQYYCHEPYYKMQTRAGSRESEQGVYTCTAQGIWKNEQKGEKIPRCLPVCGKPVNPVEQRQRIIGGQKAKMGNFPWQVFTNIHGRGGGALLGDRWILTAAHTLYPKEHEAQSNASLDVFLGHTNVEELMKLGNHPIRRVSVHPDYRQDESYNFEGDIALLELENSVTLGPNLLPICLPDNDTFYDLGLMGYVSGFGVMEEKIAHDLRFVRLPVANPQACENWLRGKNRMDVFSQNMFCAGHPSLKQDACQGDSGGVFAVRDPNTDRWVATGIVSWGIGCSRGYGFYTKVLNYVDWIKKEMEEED
# Experimental: Figure 6 CMP-1696 structure activity relationship. (A) CMP-1696 was redocked onto C1r-CCP2-SP (PDB: 1MD8, grey surface representation) and the top nine scored poses are shown. All CMP-1696 poses dock into the S1 subsite (cyan) near the catalytic triad (blue). (B) C1r autoactivation assay. C1r proenzyme undergoes time-dependent autoactivation at 37 °C. Autoactivation was measured using a synthetic substrate for C1r enzyme. The reaction progress of vehicle control (dashed line) or in the presence of 10 mM CMP-1696 (solid line) was monitored for 1 h. (C) Molecular dynamics (MD) simulations of CMP-1696/C1r-CCP2-SP. Root mean square deviation (RMSD) in nm for each of the CMP-1696 poses measured over the 10 ns molecular dynamics simulation. (D) MM/PBSA energy calculations for each pose in the 10 ns MD simulations indicate that pose 1 is the most energetically favorable. […]
# Individual stock solutions of 1 mM of Z-Gly-Arg-sBzl (MP Biomedicals, Irvine, CA, USA) and 5,5′-Dithiobis-(2-nitrobenzoic acid) (DTNB) (Sigma-Aldrich, St. Louis, MO, USA) were made by dissolving powder in DMSO to give 10 mM stocks of each compound, which were then diluted to 1 mM in assay buffer (20 mM HEPES pH 7.3, 140 mM NaCl, 0.005% (v/v) Tween-20, 2 mM CaCl2). […] Plates were read at 450 nm using an EnSight multimode plate reader (Perkin-Elmer, Waltham, MA, USA) and the reaction progress was tracked for 1 h.
# C1r = system: C1r; set-up: method as in PMID 10206542; conditions: cited from earlier work
inhibition of autocatalysis of C1r proenzyme (C1r proenzyme),SMILES,inhibition of C1r (C1r)
directly inhibited,COCc1nc(-c2ccc(OC3CNC3)cc2)no1 [CMP-1696],–
–,"N=C(N)c1ccc2cc(OC(=O)c3ccc(N=C(N)N)cc3)ccc2c1 [Futhan, reference compound]",previously reported to inhibit C1r
